In patent US20230203043A1, “NOVEL IMIDAZOPYRAZINE DERIVATIVES” (Hoffmann-La Roche Inc., priority 2020, published 2023) one finds IC90 data, which are given here for 24 compounds.

Each structure is given as a SMILES string. Structures can show the parent of a compound that is named as a salt. Where two headings read alike, the source gives them in different places.

As usually defined, the IC90 is the concentration needed for an effect of 90%.

This assay concerns Acinetobacter baumannii ATCC17961. Kind of assay: Antimicrobial susceptibility testing: 90% growth inhibitory concentration (IC90) determination in Iso-Sensitest broth, OD600 growth. It is filed as cell-based. The following applies: Acinetobacter baumannii, ATCC17961, 16 h. The essentials: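 Each strain, at about 5×10^(5) CFU/ml, was incubated with twofold dilutions of compound at 35±2° C for 16 h, and IC90 was calculated from kinetic optical density measured at 600 nm during logarithmic growth.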

The mark [1] stands for this setting: read-out: A. baumannii ATCC 17961 IC90 (uM), strain ATCC 17961, OD600 growth over 16 h.
The mark [2] stands for this setting: strain ATCC 17961, OD600 growth over 16 h, read-out: A. baumannii ATCC 17961 IC90.

Turning to `CCc1cc(Nc2nccn3c(-c4c[nH]nc4C(F)(F)F)cnc23)ccc1C(=O)NCCNC(=O)[C@@H]1CC[C@@H](N)C1` [Example 586, N-[2-[[(1R,3R)-3-aminocyclo-pentanecarbonyl]amino]ethyl]-2-ethyl-4-[[3-[3-(trifluoromethyl)-1H-pyrazol-4-yl]imidazo[1,2-a]pyrazin-8-yl]amino]benzamide formate], under setting [1], the IC90 was found to be 0.434 µM.

Turning to `CCc1cc(Nc2nccn3c(-c4cn(CC(F)F)nc4C(F)(F)F)cnc23)ccc1C(=O)NCCCNC(=O)CCN` [Example 630, N-(3-(3-aminopropanamido)propyl)-4-((3-(1-(2,2-difluoroethyl)-3-(trifluoromethyl)-1H-pyrazol-4-yl)imidazo[1,2-a]pyrazin-8-yl)amino)-2-ethylbenzamide formate], the IC90 under setting [1] was 0.206 µM.

Turning to `CCc1cc(Nc2nccn3c(-c4cn(CC#N)nc4C(F)(F)F)cnc23)ccc1C(=O)NCCCNC(=O)CCN` [Example 702, N-(3-(3-aminopropanamido)propyl)-4-((3-(1-(cyanomethyl)-3-(trifluoromethyl)-1H-pyrazol-4-yl)imidazo[1,2-a]pyrazin-8-yl)amino)-2-ethylbenzamide formate], the IC90 under setting [1] was 0.383 µM.

Consider `CCc1cc(Nc2nccn3c(-c4cn(CC(F)F)nc4C(F)F)cnc23)ccc1C(=O)N1CCN(C(=O)[C@@H]2C[C@@H](O)CN2)CC1` [Example 786, (4-(4-((3-(1-(2,2-difluoroethyl)-3-(difluoromethyl)-1H-pyrazol-4-yl)imidazo[1,2-a]pyrazin-8-yl)amino)-2-ethylbenzoyl)piperazin-1-yl)((2S,4R)-4-hydroxypyrrolidin-2-yl)methanone], for which the IC90 under setting [2] was 1.43 µM.

Turning to `CCc1cc(Nc2nccn3c(-c4cn(C(C)C)nc4C(F)(F)F)cnc23)ccc1C(=O)NCCOCCN` [Example 27, N-[2-(2-aminoethoxy)ethyl]-2-ethyl-4-[[3-[1-propan-2-yl-3-(trifluoromethyl)pyrazol-4-yl]imidazo[1,2-a]pyrazin-8-yl]amino]benzamide hydrochloride], the IC90 under setting [2] was determined as 0.306 µM.

Turning to `CCc1cc(Nc2nccn3c(-c4cn(Cc5ccncn5)nc4C(F)(F)F)cnc23)ccc1C(=O)NC` [Example 282, 2-ethyl-N-methyl-4-[[3-[1-(pyrimidin-4-ylmethyl)-3-(trifluoromethyl)pyrazol-4-yl]imidazo[1,2-a]pyrazin-8-yl]amino]benzamide], the IC90 under setting [2] came out at 0.701 µM.

Take `CCc1cc(Nc2nccn3c(-c4cn(CC#N)nc4-c4ccccc4)cnc23)ccc1C(=O)NCCOCCN` [Example 781, N-[2-(2-aminoethoxy)ethyl]-4-[[3-[1-(cyanomethyl)-3-phenyl-pyrazol-4-yl]imidazo[1,2-a]pyrazin-8-yl]amino]-2-ethyl-benzamide formate]: the IC90 under setting [1] came out at 1.09 µM.

Take `CCc1cc(Nc2nccn3c(-c4cn(CC5CC5(F)F)nc4C(F)(F)F)cnc23)ccc1C(=O)NCCOCCN` (stereo not drawn) [Example 277, N-[2-(2-aminoethoxy)ethyl]-4-[[3-[1-[(2,2-difluorocyclopropyl)methyl]-3-(trifluoromethyl)pyrazol-4-yl]imidazo[1,2-a]pyrazin-8-yl]amino]-2-ethylbenzamide formate]: the IC90 under setting [1] was determined as 0.186 µM.

In the case of `CCc1cc(Nc2nccn3c(-c4cn(CC(F)F)nc4C(F)(F)F)cnc23)ccc1C(=O)NCC(=O)NCCN` [Example 729, N-[2-(2-aminoethylamino)-2-oxo-ethyl]-4-[[3-[1-(2,2-difluoroethyl)-3-(trifluoromethyl)pyrazol-4-yl]imidazo[1,2-a]pyrazin-8-yl]amino]-2-ethyl-benzamide], under setting [2], the IC90 stood at 0.473 µM.

As to `CCc1cc(Nc2nccn3c(-c4cn(CC(F)F)nc4C(F)F)cnc23)ccc1C(=O)N1CCN(C(=O)[C@H](N)C(C)C)CC1` [Example 768, (R)-2-amino-1-(4-(4-((3-(1-(2,2-difluoroethyl)-3-(difluoromethyl)-1H-pyrazol-4-yl)imidazo[1,2-a]pyrazin-8-yl)amino)-2-ethylbenzoyl)piperazin-1-yl)-3-methylbutan-1-one], the IC90 under setting [2] was 0.916 µM.

As for `CC1(O)CN(C(=O)c2ccc(Nc3nccn4c(-c5cn(CC#N)nc5C(F)(F)F)cnc34)cc2Cl)C1` [Example 242, 2-[4-[8-[3-chloro-4-(3-hydroxy-3-methylazetidine-1-carbonyl)anilino]imidazo[1,2-a]pyrazin-3-yl]-3-(trifluoromethyl)pyrazol-1-yl]acetonitrile], the IC90 under setting [2] stood at 0.33 µM.

`CCc1cc(Nc2nccn3c(-c4cn(CC(F)F)nc4C(F)(F)F)cnc23)ccc1C(=O)NCC(=O)N1CC2CC1CN2` (stereo not drawn) [Example 538, N-2-(2,5-diazabicyclo[2.2.1]heptan-2-yl)-2-oxo-ethyl]-4-[[3-[1-(2,2-difluoroethyl)-3-(trifluoromethyl)pyrazol-4-yl]imidazo[1,2-a]pyrazin-8-yl]amino]-2-ethyl-benzamide formate]: under setting [2], the IC90 came out at 0.261 µM.

As to `CCc1cc(Nc2nccn3c(-c4cn(CC#N)nc4C(F)(F)F)cnc23)ccc1C(=O)NCCNC(=O)[C@H]1CC[C@H](N)C1` [Example 491, N-(2-((1S,3S)-3-aminocyclopentane-1-carboxamido)ethyl)-4-((3-(1-(cyanomethyl)-3-(trifluoromethyl)-1H-pyrazol-4-yl)imidazo[1,2-a]pyrazin-8-yl)amino)-2-ethylbenzamide formate], under setting [2], the IC90 worked out at 0.195 µM.

As to `Cc1cc(Nc2nccn3c(-c4cn(CC5CC5)nc4C(F)(F)F)cnc23)ccc1S(C)(=O)=NCCCN` (stereo not drawn) [Example 596, N-[4-[N-(3-aminopropyl)-S-methyl-sulfonimidoyl]-3-methyl-phenyl]-3-[1-(cyclopropylmethyl)-3-(trifluoromethyl)pyrazol-4-yl]imidazo[1,2-α]pyrazin-8-amine formate], the IC90 under setting [2] amounted to 0.131 µM.

As for `NCC(=O)N1CCN(C(=O)c2ccc(Nc3nccn4c(-c5cn(CC(F)F)nc5C(F)(F)F)cnc34)cc2Cl)CC1` [Example 6, 2-amino-1-[4-[2-chloro-4-[[3-[1-(2,2-difluoroethyl)-3-(trifluoromethyl)pyrazol-4-yl]imidazo[1,2-a]pyrazin-8-yl]amino]benzoyl]piperazin-1-yl]ethanone], the IC90 under setting [2] amounted to 0.159 µM.

For the compound `O=C(CC1CNC1)N1CCN(C(=O)c2ccc(Nc3nccn4c(-c5c[nH]nc5C(F)(F)F)cnc34)cc2Cl)CC1` [Example 133, 2-(azetidin-3-yl)-1-[4-[2-chloro-4-[[3-[3-(trifluoromethyl)-1H-pyrazol-4-yl]imidazo[1,2-a]pyrazin-8-yl]amino]benzoyl]piperazin-1-yl]ethanone], under setting [2], the IC90 is 0.322 µM.

Regarding `O=C(NC1CCCN(C(=O)[C@H]2C[C@H](O)CN2)C1)c1ccc(Nc2nccn3c(-c4c[nH]nc4C(F)(F)F)cnc23)cc1Cl` (mixture of isomers) [Example 387, 2-chloro-N-[1-[rac-(2R,4S)-4-hydroxypyrrolidine-2-carbonyl]piperidine-3-yl]-4-[[3-[3-(trifluoromethyl)-1H-pyrazol-4-yl]imidazo[1,2-a]pyrazin-8-yl]amino]benzamide], the IC90 under setting [2] is 4.84 µM.

As to `N#CCn1cc(-c2cnc3c(Nc4ccc(C(=O)N5CCN(C(=O)CN)CC5)c(F)c4)nccn23)c(C(F)(F)F)n1` [Example 813, 2-(4-(8-((3-fluoro-4-(4-glycylpiperazine-1-carbonyl)phenyl)amino)imidazo [1,2-a]pyrazin-3-yl)-3-(trifluoromethyl)-1H-pyrazol-1-yl)acetonitrile hydrochloride], the IC90 under setting [2] was found to be 0.21 µM.

Turning to `N#CCn1cc(-c2cnc3c(Nc4ccc(C(=O)N5CCN(CC(=O)NC6CNC6)CC5)c(Cl)c4)nccn23)c(C(F)(F)F)n1` [Example 604, N-(azetidin-3-yl)-2-(4-(2-chloro-4-((3-(1-(cyanomethyl)-3-(trifluoromethyl)-1H-pyrazol-4-yl)imidazo[1,2-a]pyrazin-8-yl)amino)benzoyl)piperazin-1-yl)acetamide formate], the IC90 under setting [1] is 0.602 µM.

As to `CCc1cc(Nc2nccn3c(-c4cn(CC(F)F)nc4C(F)(F)F)cnc23)ccc1C(=O)NCCOCC(C)(C)N` [Example 50, N-[2-(2-amino-2-methylpropoxy)ethyl]-4-[[3-[1-(2,2-difluoroethyl)-3-(trifluoromethyl)pyrazol-4-yl]imidazo[1,2-a]pyrazin-8-yl]amino]-2-ethylbenzamide], the IC90 under setting [2] is 0.121 µM.

Turning to `Cc1cc(Nc2nccn3c(-c4cn(CC#N)nc4C(F)(F)F)cnc23)cc(F)c1C(=O)N1CCN(C(=O)C2CCNCC2)CC1` [Example 703, 2-(4-(8-((3-fluoro-5-methyl-4-(4-(piperidine-4-carbonyl)piperazine-1-carbonyl)phenyl)amino)imidazo[1,2-a]pyrazin-3-yl)-3-(trifluoromethyl)-1H-pyrazol-1-yl)acetonitrile formate], the IC90 under setting [1] worked out at 0.383 µM.

On to `CCc1cc(Nc2nccn3c(-c4cn(CC(F)F)nc4C(F)(F)F)cnc23)ccc1C(=O)NCCNC(=O)[C@@H]1CC[C@H](N)C1` [Example 497, N-(2-((1R,3S)-3-aminocyclopentane-1-carboxamido)ethyl)-4-((3-(1-(2,2-difluoroethyl)-3-(trifluoromethyl)-1H-pyrazol-4-yl)imidazo[1,2-a]pyrazin-8-yl)amino)-2-ethylbenzamide formate], for which, under setting [2], the IC90 worked out at 0.183 µM.

Turning to `C#CCNC(=O)c1c(C)cc(Nc2nccn3c(-c4c[nH]nc4C(F)(F)F)cnc23)cc1F` [Example 43, 2-fluoro-6-methyl-N-prop-2-ynyl-4-[[3-[3-(trifluoromethyl)-1H-pyrazol-4-yl]imidazo[1,2-a]pyrazin-8-yl]amino]benzamide], under setting [2], the IC90 stood at 1.95 µM.

Turning to `N#CCn1cc(-c2cnc3c(Nc4ccc(C(=O)NCC(=O)NCCN)c(Cl)c4)nccn23)c(C(F)(F)F)n1` [Example 119, N-[2-(2-aminoethylamino)-2-oxoethyl]-2-chloro-4-[[3-[1-(cyanomethyl)-3-(trifluoromethyl)pyrazol-4-yl]imidazo[1,2-a]pyrazin-8-yl]amino]benzamide formate], the IC90 under setting [1] is 0.476 µM.
